Assay results taken from patent US12195427B2, “MASP-2 inhibitors and methods of use” (priority 2018, dated 2025).
Each block holds one molecule with its values, some of them ahead of it.

Target: MASP-2 CCP2-SP (Homo sapiens (Human), UniProt O00187)
Assay: MASP-2 co-crystallization, X-ray crystallography and structure analysis (H-bonds, van der Waals contacts);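 for Ligand-pharmacophore element distance, pharmacophore element C2: distance from averaged pharmacophore element to bound ligand; missing value means element absent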;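 for Ligand-pharmacophore element distance, pharmacophore element C3: distance from averaged pharmacophore element to bound ligand; missing value means element absent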;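 for Ligand-pharmacophore element distance, pharmacophore element C4: distance from averaged pharmacophore element to bound ligand; missing value means element absent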;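 for Ligand-pharmacophore element distance, pharmacophore element C5: distance from averaged pharmacophore element to bound ligand; missing value means element absent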
Set-up: van der Waals contact distance, MASP-2 HIS 483 atom CD2 / van der Waals contact distance, MASP-2 HIS 483 atom NE2 / van der Waals contact distance, SER 654 C to compound atom / van der Waals contact distance, SER 654 O to compound atom / van der Waals contact distance, TRP 655 C to compound atom / van der Waals contact distance, MASP-2 GLY 528 atom CA / van der Waals contact distance TRP 655 atom CZ3 / van der Waals contact distance TRP 655 atom N / van der Waals contact distance TRP 655 atom CE3 / van der Waals contact distance GLY 656 atom C / van der Waals contact distance GLY 656 atom CA / van der Waals contact distance GLY 656 atom O / van der Waals contact distance, MASP-2 TYR 607 atom CD1 / van der Waals contact distance, MASP-2 PRO 606 atom O / d(C3,CA1) / d(CA1,N1)2 / d(H4,O1) / d(H4,O2) / d(O1,O2) / d(CA1,O2) / d(CA6,O1) / d(CA6,O2) / d(CA1,C5) / d(O2,H3) / d(N2,C2) / d(CA5,N2) / d(N2,C4) / d(N2,C6) / d(N2,CA3) / d(N2,O3) / d(O4,H2): unit not given beside the values
Details: for Ligand-pharmacophore element distance, pharmacophore element C2 / Ligand-pharmacophore element distance, pharmacophore element C3 / Ligand-pharmacophore element distance, pharmacophore element C4 / Ligand-pharmacophore element distance, pharmacophore element C5 / Ligand-pharmacophore element distance, pharmacophore element C6 / Ligand-pharmacophore element distance, pharmacophore element C7 / Ligand-pharmacophore element distance, pharmacophore element CA1 / Ligand-pharmacophore element distance, pharmacophore element CA2 / Ligand-pharmacophore element distance, pharmacophore element CA3 / Ligand-pharmacophore element distance, pharmacophore element CA4 / Ligand-pharmacophore element distance, pharmacophore element CA5 / Ligand-pharmacophore element distance, pharmacophore element CA6: Table A4-1; for Pharmacophore torsion angle a(O1, O2, N2, CA2) / Pharmacophore torsion angle a(O1, O2, N2, CA4): Table A7-2
In short: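 Contacts and H-bonds come from partially refined soaked-crystal structures of recombinant human CCP2-SP made in E. coli, solved by molecular replacement against 1Q3X fragments. Where several ligand poses appeared, only one was analysed; listed nonbonded contacts may include possible H-bond pairings.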

[1] = Table A5-1 pharmacophore: distance between elements, S2/S1 region
[2] = Table A5-2 pharmacophore distance, S3/S4 region
[3] = Table A7-1, between pharmacophore elements of the bound compound
[4] = between pharmacophore elements of the bound compound
[5] = Table A8-6, nearest protein atom in cell to the left

Chain of MASP-2 CCP2-SP (O00187 445-686): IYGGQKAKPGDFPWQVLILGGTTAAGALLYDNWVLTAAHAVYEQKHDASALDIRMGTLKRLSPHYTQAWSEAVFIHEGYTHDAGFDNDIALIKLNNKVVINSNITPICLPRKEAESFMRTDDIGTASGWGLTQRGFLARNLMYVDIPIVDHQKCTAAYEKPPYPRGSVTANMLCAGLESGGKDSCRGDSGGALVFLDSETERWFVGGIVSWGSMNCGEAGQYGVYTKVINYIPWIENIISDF
Chain of MASP-2 CCP2-SP (O00187 364-432 partner): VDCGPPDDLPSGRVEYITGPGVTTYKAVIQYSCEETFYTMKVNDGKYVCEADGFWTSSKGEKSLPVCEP

SMILES: Cc1nc(N)ccc1CNC(=O)C(C)NC(=O)C1CC(c2cccc3ccccc23)CCN1.Cl.Cl (centres unmarked) [1297_3]
Ligand-pharmacophore element distance, pharmacophore element C2: 0.28 | Ligand-pharmacophore element distance, pharmacophore element C3: 0.23 | Ligand-pharmacophore element distance, pharmacophore element C4: 0 | Ligand-pharmacophore element distance, pharmacophore element C5: 0 | Ligand-pharmacophore element distance, pharmacophore element C6: 0 | Ligand-pharmacophore element distance, pharmacophore element C7: 0 | Ligand-pharmacophore element distance, pharmacophore element CA1: 0.33 | Ligand-pharmacophore element distance, pharmacophore element CA2: 0.22 | Ligand-pharmacophore element distance, pharmacophore element CA3: 0 | Ligand-pharmacophore element distance, pharmacophore element CA4: 0.94 | Ligand-pharmacophore element distance, pharmacophore element CA5: 0 | Ligand-pharmacophore element distance, pharmacophore element CA6: 0 | d(C3,CA1) [1]: 2.85 | d(CA1,N1)2 [1]: 1.39 | d(CA1,O1) [1]: 4.43 | d(CA1,O2) [1]: 3.92 | d(H4,O1) [1]: 4.37 | d(H4,O2) [1]: 3.85 | d(O1,O2) [1]: 3.55 | d(N2,C2) [2]: 1.43 | d(N2,CA2) [2]: 5.64 | d(O2,H3) [2]: 4.22 | d(O2,N2) [2]: 2.72 | a(C3, CA1, O1) (Table A6-1 pharmacophore angle): 150.32 | a(CA1, O1, O2) (Table A6-1 pharmacophore angle): 107.42 | a(O1, O2, H4) (Table A6-1 pharmacophore angle): 129.38 | a(N1, CA1, O1) b) (Table A6-1 pharmacophore angle, Methyl-amino-pyridine compounds): 174.78 | a(O1, O2, H3) (Table A6-2 pharmacophore angle): 143.41 | a(O1, O2, N2) (Table A6-2 pharmacophore angle): 144.44 | a(O2, N2, C2) (Table A6-2 pharmacophore angle): 132.31 | a(O2, N2, CA2) (Table A6-2 pharmacophore angle): 156.50 | Pharmacophore torsion angle a(C3, CA1, O1, H4) [3]: 28.95 | Pharmacophore torsion angle a(H4, O1, O2, H3) [3]: 50.29 | Pharmacophore torsion angle a(H4, O1, O2, N2) [3]: 141.16 | Pharmacophore torsion angle a(N1, CA1, O1, H4) [3]: 22.83 | Pharmacophore torsion angle a(O1, H4, O2, CA1) [3]: −86.03 | Pharmacophore torsion angle a(O1, O2, N2, C2) [3]: 114.36 | Pharmacophore torsion angle a(O1, O2, N2, CA2) [4]: 129.56 | Pharmacophore torsion angle a(O1, O2, N2, CA4) [4]: 108.64

H-bond distance to MASP-2 ASP 627 atom OD2 (Table A1 (H-Bonds), ASP 627 OD2): 3.09 | H-bond distance to MASP-2 CYS 660 atom SG (Table A1 (H-Bonds), CYS 660 SG): 3.16 | H-bond distance to MASP-2 GLY 656 atom N (Table A1 (H-Bonds), GLY 656 N): 3.24 | H-bond distance to MASP-2 SER 654 atom O (Table A1 (H-Bonds), SER 654 O): 2.7 | H-bond distance to MASP-2 SER 657 atom O (Table A1 (H-Bonds), SER 657 O): 2.75 | H-bond distance to MASP-2 SER 657 atom OG (Table A1 (H-Bonds), SER 657 OG): 3.19 | van der Waals contact distance, MASP-2 ASP 526 atom C (Table A2-1): 3.29 | van der Waals contact distance, MASP-2 ASP 526 atom CA (Table A2-1): 3.87 | van der Waals contact distance, MASP-2 HIS 483 atom CD2 (Table A2-1): 3.81 | van der Waals contact distance, MASP-2 GLY 528 atom N (Table A2-2): 3.4 | van der Waals contact distance, MASP-2 PHE 529 atom CE1 (Table A2-3): 3.68 | van der Waals contact distance, SER 654 C to compound atom (Table A2-11): 3.68 | Ligand-pharmacophore element distance, pharmacophore element C2: 0 | Ligand-pharmacophore element distance, pharmacophore element C3: 0 | Ligand-pharmacophore element distance, pharmacophore element C4: 3.8 | Ligand-pharmacophore element distance, pharmacophore element C5: 0 | Ligand-pharmacophore element distance, pharmacophore element C6: 0 | Ligand-pharmacophore element distance, pharmacophore element C7: 0 | Ligand-pharmacophore element distance, pharmacophore element CA1: 0.35 | Ligand-pharmacophore element distance, pharmacophore element CA2: 0 | Ligand-pharmacophore element distance, pharmacophore element CA3: 0 | Ligand-pharmacophore element distance, pharmacophore element CA4: 1.47 | Ligand-pharmacophore element distance, pharmacophore element CA5: 0 | Ligand-pharmacophore element distance, pharmacophore element CA6: 4.96 | d(CA1,N1) [1]: 3.57 | d(CA1,O1) [1]: 5.15 | d(CA1,O2) [1]: 9.42 | d(CA6,O1) [1]: 7.04 | d(CA6,O2) [1]: 8.45 | d(H4,O1) [1]: 5.59 | d(H4,O2) [1]: 8.32 | d(O1,O2) [1]: 8.70 | d(N2,C4) [2]: 7.94 | d(O2,H3) [2]: 5.29 | d(O2,N2) [2]: 4.42 | a(CA1, O1, O2) (Table A6-1 pharmacophore angle): 147.27 | a(O1, CA6, O2) (Table A6-1 pharmacophore angle): 131.55 | a(O1, O2, H4) (Table A6-1 pharmacophore angle): 105.44 | A(N1, CA1, O1) a) (Table A6-1 pharmacophore angle, all compounds with protonatable center N1 except Methyl-amino-pyridine): 168.87 | a(O1, O2, H3) (Table A6-2 pharmacophore angle): 54.88 | a(O1, O2, N2) (Table A6-2 pharmacophore angle): 62.73 | a(O2, N2, C4) (Table A6-2 pharmacophore angle): 154.82 | a(O2, N2, C4) 2 (Table A6-2 pharmacophore angle): 49.80 | Pharmacophore torsion angle a(CA6, O1, H4, O2) [3]: 55.30 | Pharmacophore torsion angle a(H4, O1, O2, H3) [3]: 105.58 | Pharmacophore torsion angle a(H4, O1, O2, N2) [3]: 125.02 | Pharmacophore torsion angle a(N1, CA1, O2, H4) [3]: −109.82 | Pharmacophore torsion angle a(O1, H4, O2, CA1) [3]: −48.11 | Pharmacophore torsion angle a(O1, O2, N2, CA4) [4]: 155.91 | Pharmacophore protein distance to MET_658 (first MET_658 column) (Table A8-6, 6th residue column, nearest protein atom in cell to the left): 2.55 | Pharmacophore protein distance to MET_658 (second MET_658 column) (Table A8-6, 9th residue column, nearest protein atom in cell to the left): 3.25 | Pharmacophore protein distance to GLY_528 [5]: 3.92 | Pharmacophore protein distance to PHE_529 [5]: 2.93 | Pharmacophore protein distance to PRO_608 [5]: 4.39 | Pharmacophore protein distance to SER_611 [5]: 2.96 | Pharmacophore protein distance to TRP_655 (Table A8-6, pharmacophore elements C6, CA3, O3, H1, nearest protein atom in cell to the left): 3.27
SMILES: C[C@H](NC(=O)[C@@H](CCc1ccccc1)NCc1ccc(N2CCOCC2)cc1)C(=O)NCc1ccc(C(=N)N)cc1 [compound 1149]

SMILES: C[C@H](NC(=O)[C@H]1C[C@@H](c2ccccc2)CCN1)C(=O)NCc1cc(Cl)ccc1O.Cl [1078_11]
Ligand-pharmacophore element distance, pharmacophore element C2: 0.6 | Ligand-pharmacophore element distance, pharmacophore element C3: 0 | Ligand-pharmacophore element distance, pharmacophore element C4: 0 | Ligand-pharmacophore element distance, pharmacophore element C5: 0.41 | Ligand-pharmacophore element distance, pharmacophore element C6: 0 | Ligand-pharmacophore element distance, pharmacophore element C7: 0 | Ligand-pharmacophore element distance, pharmacophore element CA1: 1.64 | Ligand-pharmacophore element distance, pharmacophore element CA2: 0.64 | Ligand-pharmacophore element distance, pharmacophore element CA3: 0 | Ligand-pharmacophore element distance, pharmacophore element CA4: 0 | Ligand-pharmacophore element distance, pharmacophore element CA5: 0 | Ligand-pharmacophore element distance, pharmacophore element CA6: 0 | d(CA1,C5) [1]: 3.12 | d(CA1,O1) [1]: 4.69 | d(CA1,O2) [1]: 4.58 | d(CA1,O4) [1]: 2.75 | d(H4,O1) [1]: 2.26 | d(H4,O2) [1]: 2.51 | d(O1,O2) [1]: 3.42 | d(O4,H2) [1]: 0.97 | d(N2,C2) [2]: 1.47 | d(N2,CA2) [2]: 5.75 | d(O2,H3) [2]: 3.05 | d(O2,N2) [2]: 2.97 | a(C5, CA1, O1) (Table A6-1 pharmacophore angle): 161.80 | a(CA1, O1, O2) (Table A6-1 pharmacophore angle): 109.94 | a(CA1, O4, H2) (Table A6-1 pharmacophore angle): 130.34 | a(O1, CA1, O4) (Table A6-1 pharmacophore angle): 59.87 | a(O1, O2, H4) (Table A6-1 pharmacophore angle): 88.73 | a(O1, O2, H3) (Table A6-2 pharmacophore angle): 137.81 | a(O1, O2, N2) (Table A6-2 pharmacophore angle): 142.32 | a(O2, N2, C2) (Table A6-2 pharmacophore angle): 120.15 | a(O2, N2, CA2) (Table A6-2 pharmacophore angle): 152.82 | Pharmacophore torsion angle a(C5, CA1, O1, H4) [3]: 37.14 | Pharmacophore torsion angle a(H4, O1, O2, H3) [3]: −120.02 | Pharmacophore torsion angle a(H4, O1, O2, N2) [3]: −112.40 | Pharmacophore torsion angle a(O1, H4, O2, CA1) [3]: −55.96 | Pharmacophore torsion angle a(O1, O2, N2, C2) [3]: 136.21 | Pharmacophore torsion angle a(O1, O2, N2, CA2) [4]: 138.54
